Assay results: US20230174575A1 (priority 2020, published 2023)
Like-named read-outs stand apart in the source and are kept apart here.

Legend:
[1] = Cell toxicity against Vero cells by MTT assay; settings: African green monkey
Procedure: (§1) Cell toxicity was monitored by establishing the effect of lysozyme HCl against Vero cells (epithelial cells of monkey kidneys). The cells were seeded in 96-well plates at the concentration of 1×10^4 cells/well. 24 hours after seeding, the cells were treated with serial dilutions of lysozyme HCl or chloroquine (as control), in a final volume of 200 in triplicate. After 72 hours' incubation at 37° C. with 5% CO2, cell viability was measured by MTT assay (D'Alessandro, M. et al., Differential effects on angiogenesis of two antimalarial compounds, dihydroartemisinin and artemisone: Implications for embryotoxicity, Toxicology. 241 (2007) 66-74. Doi: 10.1016/j.tox.2007.08.084).
(§2) The data were calculated as percentage cell viability using the formula:
(§3) [(absorbance of sample−blank of cell-free sample)/mean absorbance of control of media]×100.
(§4) The cytotoxicity of ovotransferrin and chloroquine (CQ) was measured by MTT assay, similarly to the method used for lysozyme HCl.

[2] = system: Vero cells; experiment: Cell toxicity against Vero cells by MTT assay; settings: MTT assay
Procedure: as §1, §2, §3, §4

[3] = system: SARS-CoV-2; experiment: Virucidal activity, plaque test; assay type: cell-based
[4] = system: SARS-CoV-2; assay type: cell-based; settings: for Percentage replication of SARS-CoV-2 (lysozyme only): no ovotransferrin
[5] = system: Micrococcus lysodeikticus cells; experiment: Enzyme activity, enzymatic turbidimetric method (FIP method); assay type: biochemical
Procedure: • Flow rate: 1 ml/min Determination of assay value (enzymatic turbidimetric method using Micrococcus lysodeikticus cells): according to the FIP method (Pharmaceutical Enzyme, Ed 1997, 84, 375) and J Pharm Pharmacol. 2001; 53 (4); 549-54.

## CCN(CC)CCCC(C)Nc1ccnc2cc(Cl)ccc12 (stereo not drawn) [CQ, chloroquine, reference compound]
[1]
  CC50 at 72 h: 95.3 ± 18 µM
[2]; unit not given
  CC10: 20.93±4.39

## Heat-treated lysozyme: lysozyme HCl heat-treated at 99° C. for 40 minutes
[3]; 0.42 mg/ml
  mean PFU/ml (average of three experiments): 58.61 PFU/ml
  percentage (PFU relative to untreated infected cells): 57.2%
[3]; 0.42 mg/ml, plaque assay
  infectivity of SARS-CoV-2 reduced by: 57.2%
[3]; 0.56 mg/ml
  mean PFU/ml (average of three experiments): 60.41 PFU/ml
  percentage (PFU relative to untreated infected cells): 58.9%
[3]; 0.56 mg/ml, plaque assay
  infectivity of SARS-CoV-2 reduced by: 58.9%
[3]; 1 mg/ml
  mean PFU/ml (average of three experiments): 71.32 PFU/ml
  percentage (PFU relative to untreated infected cells): (69.6%)
[3]; 1 mg/ml, plaque assay
  infectivity of SARS-CoV-2 reduced by: 69.6%

## lysozyme hydrochloride [Lysozyme HCl]
[4]
  antiviral activity against SARS-CoV-2 infection in the in vitro test: high antiviral activity
  percentage viral replication: very low, and close to zero
[4]; Dry heat treatment (74° C. for 60 min), 0.33 mg/mL
  % viral replication (average of 9 replications): 83.24%
[4]; Dry heat treatment (74° C. for 60 min), 0.5 mg/mL
  % viral replication (average of 9 replications): 42.05%
[4]; Dry heat treatment (74° C. for 60 min), 0.75 mg/mL
  % viral replication (average of 9 replications): 11.31%
[4]; Dry heat treatment (99° C. for 40 min), 0.33 mg/mL
  % viral replication (average of 9 replications): 60.32%
[4]; Dry heat treatment (99° C. for 40 min), 0.5 mg/mL
  % viral replication (average of 9 replications): 35.56%
[4]; Dry heat treatment (99° C. for 40 min), 0.75 mg/mL
  % viral replication (average of 9 replications): 16.58%
[4]; Heat treatment in aqueous solution, 90° C. for 3 minutes, 0.33 mg/mL
  % viral replication (average of 9 replications): 87.85%
[4]; Heat treatment in aqueous solution, 90° C. for 3 minutes, 0.5 mg/mL
  % viral replication (average of 9 replications): 67.97%
[4]; Heat treatment in aqueous solution, 90° C. for 3 minutes, 0.75 mg/mL
  % viral replication (average of 9 replications): 15.55%
[4]; Heat treatment in aqueous solution, 90° C. for 6 minutes, 0.33 mg/mL
  % viral replication (average of 9 replications): 87.96%
[4]; Heat treatment in aqueous solution, 90° C. for 6 minutes, 0.5 mg/mL
  % viral replication (average of 9 replications): 51.62%
[4]; Heat treatment in aqueous solution, 90° C. for 6 minutes, 0.75 mg/mL
  % viral replication (average of 9 replications): 9.88%
[4]; Heat treatment in aqueous solution, 90° C. for 20 minutes, 0.33 mg/mL
  % viral replication (average of 9 replications): 78.00%
[4]; Heat treatment in aqueous solution, 90° C. for 20 minutes, 0.5 mg/mL
  % viral replication (average of 9 replications): 36.10%
[4]; Heat treatment in aqueous solution, 90° C. for 20 minutes, 0.75 mg/mL
  % viral replication (average of 9 replications): 18.30%
[4]; Heat treatment in aqueous solution, 90° C. for 25 minutes, 0.33 mg/mL
  % viral replication (average of 9 replications): 42.06%
[4]; Heat treatment in aqueous solution, 90° C. for 25 minutes, 0.5 mg/mL
  % viral replication (average of 9 replications): 24.61%
[4]; Heat treatment in aqueous solution, 90° C. for 25 minutes, 0.75 mg/mL
  % viral replication (average of 9 replications): 2.62%
[4]; No heat treatment, 0.33 mg/mL
  % viral replication (average of 9 replications): 79.72%
[4]; No heat treatment, 0.5 mg/mL
  % viral replication (average of 9 replications): 58.13%
[4]; No heat treatment, 0.75 mg/mL
  % viral replication (average of 9 replications): 25.51%
[4]; lysozyme HCl 0.32 mg/ml
  Percentage replication of SARS-CoV-2 (lysozyme only): 93%
[4]; lysozyme HCl 0.42 mg/ml
  Percentage replication of SARS-CoV-2 (lysozyme only): 89%
[4]; lysozyme HCl 0.56 mg/ml
  Percentage replication of SARS-CoV-2 (lysozyme only): 93%
[4]; lysozyme HCl 0.75 mg/ml, in the absence of ovotransferrin
  viral replication inhibited by: about 62%
[4]; lysozyme HCl 0.75 mg/ml
  Percentage replication of SARS-CoV-2 (lysozyme only): 62%
[2]; 72 hours
  CC50 for Vero cells: 13.3 mg/mL
[3]; 0.42 mg/ml
  mean PFU/ml (average of three experiments): 70 PFU/ml
  percentage (PFU relative to untreated infected cells): 83.9%
[3]; 0.56 mg/ml
  mean PFU/ml (average of three experiments): 61.65 PFU/ml
  percentage (PFU relative to untreated infected cells): 84.1%
[3]; 1 mg/ml
  mean PFU/ml (average of three experiments): 75 PFU/ml
  percentage (PFU relative to untreated infected cells): (<100%)
[3]; any of the doses used (0.42, 0.56, 1 mg/ml), plaque assay
  reduction of infectivity of SARS-CoV-2: did not reduce the infectivity
[5]; No heat treatment
  Enzyme activity (turbidimetric method): 98.7
[5]; after dry heat treatment (74° C. for 60 min)
  Enzyme activity (turbidimetric method): 98.8
[5]; after dry heat treatment (99° C. for 40 min)
  Enzyme activity (turbidimetric method): 98.1
[5]; after heat treatment in aqueous solution, 90° C. for 3 minutes
  Enzyme activity (turbidimetric method): 97.3
[5]; after heat treatment in aqueous solution, 90° C. for 6 minutes
  Enzyme activity (turbidimetric method): 97.4
[5]; after heat treatment in aqueous solution, 90° C. for 20 minutes
  Enzyme activity (turbidimetric method): 92.1
[5]; after heat treatment in aqueous solution, 90° C. for 25 minutes
  Enzyme activity (turbidimetric method): 88.8
